{"source": "patent US6706737B2", "about": "“Alkoxy substituted benzimidazole compounds, pharmaceutical preparations containing the same, and methods of using the same” (priority 1999, dated 2004)", "experiment": "Solubility assessment as a function of HPβCD concentration", "type": "physicochemical", "experimental": "Solubility studies were performed by the addition of a known mass of 5(6)-methoxy-2[[(methoxy-3,5-dimethyl-2-pyridinyl)-methyl]sulfinyl]-1H-benzimidazole and/or HP CD to a given volume of solvent system. Solubilities were determined by observation, as the maximum concentration at which 5(6)-methoxy-2-[[(4-methoxy-3,5-dimethyl-2-pyridinyl)-methyl]sulfinyl]-1H-benzimidazole completely dissolved. Additionally, concentrations of 5(6)-methoxy-2-[[(4-methoxy-3,5-dimethyl-2-pyridinyl)methyl]sulfinyl]-1H-benzimidazole and HP CD at set molar ratios were solubilized in systems of high pH (adjusted as high as 12.2, with 1N NaOH), the pH was adjusted (using 2N HCl) in a stepwise downward manner until precipitation occurred.\nThe solubility of 5(6)-methoxy-2-[[(4-methoxy-3,5-dimethyl-2-pyridinyl)-methyl]sulfinyl]-1H-benzimidazole was assessed as a function of HPβCD concentration in water. […] In general, the solubility of the active ingredient is influenced by solution pH.\nThe procedure according to Example 86 was repeated except that water with a borate buffer (pH of 8) was employed.\nThe procedure according to Example 86 was repeated except that water with a phosphate buffer (pH of 11) was employed.", "note": "“And” between values parts separate entries of the source, which are not always exact repeats. Equal values may be shown once.", "data": [{"smiles": "COc1ccc2[nH]c([S+]([O-])Cc3ncc(C)c(OC)c3C)nc2c1", "note": "(stereo not shown) [5(6)-methoxy-2-[[(4-methoxy-3,5-dimethyl-2-pyridinyl)-methyl]sulfinyl]-1H-benzimidazole]", "values": [{"measurement": "aqueous solubility", "setting": "water", "value": "approximately 0.3 mg/mL and ~0.9 mM"}, {"measurement": "solubility as a function of HPβCD concentration", "setting": "water", "value": "increase linearly"}, {"measurement": "solubility as a function of HPβCD concentration", "setting": "water with a borate buffer (pH of 8)", "value": "increase linearly"}, {"measurement": "solubility as a function of HPβCD concentration", "setting": "water with a phosphate buffer (pH of 11)", "value": "increase linearly"}]}]}
